Source: US20260131033A1, “RADIOLABELED FRUCTOSE DERIVATIVES FOR MEDICAL IMAGING” (Yellowbird Diagnostics Inc., priority 2023, published 2026)

Columns and labels:
[1] = system: HepG2 human hepatocarcinoma cells; assay: Tracing of [U^13C]-fructose analog metabolism in vitro by LC-MS; format: cell-based; conditions: for metabolic fate / main ^13C-labelled cellular product / metabolism through the polyol pathway: 25 mM ^13C-labelled analog; for formation of glucose-6-phosphate: polyol pathway
Method: In order to characterize the structure-activity effect of fructose deoxyfluorination on metabolic flux, the metabolism of isotopically labelled [U^13C]-fructose, and [U^13C]-1-, [U^13C]-6-, and [U^13C]-4-FDF deoxyfluorinated fructose analogs was evaluated in vitro in HepG2 human hepatocarcinoma cells by mass spectrometry (FIGS. 3A-3G). HepG2 were chosen as a model cell line due to a recent report by Tee et al. outlining their propensity for fructolysis (Tee, S. S. et al., 2022). [U^13C]-1- and [U^13C]-6-FDF were synthesized according to previously published methods (Haradahira, T. et al., 1995; Wuest, M. et al., 2011), and [U^13C]-4-FDF was synthesized as described hereinabove (Scheme 3).
Tracing of [U^13C]-fructose metabolism in vitro. Human hepatocellular carcinoma cells (HepG2) were grown in Dulbecco's modified Eagle medium (DMEM) supplemented with 10% heat-inactivated fetal bovine serum (FBS) and 1% penicillin-streptomycin (P/S) until 80% confluent under cell culture conditions (37° C., 5% CO2, humidified), at which point they were passaged. Cells were passaged three times before being seeded in to a 6-well plate and grown until 80% confluent. Supplemented media was aspirated and replaced with lactated Ringer's buffer (LRB) alone or containing 25 mM [U^13C]-1-FDF, [U^13C]-4-FDF, or [U^13C]-6-FDF. Cells were incubated under cell culture conditions for 0, 15, 30, or 60 min. Following incubation, the plates were placed on ice and wells were aspirated. Wells were washed three times with ice-cold ammonium formate buffer (150 mM, pH 7.4) to remove unbound probe. A chilled (−20° C.) solution of 1:1 methanol:water was added to the wells and cells were scraped off of the wells into the solution. This solution was collected into bead-beater tubes containing 6 beads and stored at −80° C. until further analysis was performed.
Levels of fructose metabolites were assessed by liquid chromatography mass spectrometry (LC-MS). Sample temperature was maintained on ice or dry ice where possible, and all solvents were MS grade and pre-equilibrated to −20° C.
Metabolite extraction. Cell pellets were collected to a pre-chilled 2 mL tube containing 6 washed ceramic beads (1.4 mm). 380 μl of methanol:water (1:1) was added in the tube and kept in −80° C. until the day of metabolite extraction. On the day of extraction, samples were vortexed for 10 s and cell lysis was done by beating for 60 s at 2000 rpm (bead beating was done twice) after adding 220 μL of acetonitrile. Samples were then incubated with a 2:1 dichloromethane:water solution on ice for 10 minutes. The polar and non-polar phases were separated by centrifugation at 4000 g for 10 minutes at 1° C. The resulting upper phase, consisting of polar metabolites was dried with a refrigerated (−4° C.) centrivap concentrator (Labconco) and stored at −80° C. before LC-MS analyses.
LC-MS metabolite quantification. Samples to be injected in -ESI were re-suspended with 75% acetonitrile, cleared by centrifugation and run on an Agilent 6545B Q-TOF mass spectrometer equipped with a 1290 Infinity II ultra-high performance LC (Agilent Technologies). Continuous internal mass calibration was executed using signals from purine [12,000 full width at half maximum (FWHM) resolution] and hexakis (1H,1H,3H-tetrafluoropropoxy) phosphazine (24,000 FWHM resolution). All study samples were randomized before analysis and run using both high and low pH hydrophilic interaction chromatography (HILIC-Z) in negative ionization mode. HILIC separation was obtained using the Poroshell 120 HILIC-Z column (2.1 100 mm, […]; Agilent) and corresponding guard column. The chromatographic conditions and mass spectrometry acquisition parameters were as described elsewhere (Zhu, Z. et al., 2023). Metabolite identification was confirmed by exact mass, retention time and subsequent MS/MS fragmentation for where standards are available. For the fluoro-fructose labelled metabolites, exact mass and MS/MS was considered for metabolite confirmation. […]

[2] = Wuest, M. et al., 2018; cited from earlier work
concussed mouse brain = assay: PET/CT imaging of mice after closed-head concussive impact; format: in vivo, Balb/C mice
Method: Arrowhead indicates approximate location and direction of concussive blow. Mice were either left without head impact (Naïve), or received a single closed-head impact vertically at bregma 48 hrs prior to imaging. […] Average images from 20-40 min after the commencement of the scan are shown.

[3] = system: heterotopic HepG2 xenograft mouse model; assay: Comparative PET/CT biodistribution in heterotopic HepG2 xenograft mouse model; format: in vivo
Method: After the confirmation of cell uptake and intracellular trapping of [U^13C]4-FDF, and the successful production of the radiofluorinated analog, the biodistribution of [^18F]4-FDF was evaluated in a heterotopic HepG2 xenograft mouse model and compared to the biodistribution of [^18F]6-FDF and [^18F]FDG. PET/CT images shown are the summed images from 20-45 min after intravenous injection of (FIG. 4A) [^18F]4-FDF, (FIG. 4B) [^18F]6-FDF, or (FIG. 4C) [^18F]FDG. Sagittal, coronal, and maximum intensity projection (MIP) are shown, in addition to axial sections at the level of the brain, heart, liver/kidneys, and hips. […] Purple represents an increase in AUC and blue represents a decrease in AUC. The values are normalized fold-change in AUC.
Eight-week-old female nu/nu mice were inoculated with 10×10^6 HepG2 cells suspended in 50% Matrigel:DMEM subcutaneously under the left shoulder. Within 3-weeks of implantation, mice were imaged by PET/CT.
PET/CT Imaging. PET/CT imaging was carried out on a Bruker Si78PET/CT scanner with a 4-position hotel having adjustable isoflurane and respiratory monitoring for each position (Bruker USA). Tail veins were catheterized, and an anatomical CT was acquired over the whole of the mouse bodies using the “rat” settings. PET acquisition was started just prior to a bolus i.v. injection of approximately 200 μCi of radiotracer. Dynamic scans were acquired in list mode format over 45 min and sorted into 16×0.5-mm sinogram bins for image reconstruction (4×15 s, 4×60 s and 8×300 s). Iterative reconstruction was performed using 3D ordered-subsets expectation maximization (3D-OSEM) followed by fast maximum a posteriori (fastMAP) using Paravision 360 software v.3.4 (Bruker, USA). Four-mouse images were split into individual mice, and the bed was removed using PMOD v (Bruker, USA). VivoQuant v.2022 (InviCRO) was used for visualization of radioradiotracer uptake in tissues, to define the three-dimensional (3D) volumes of interest (VOI) and for 3D-visualisation to create volume rendering technique images. The count densities were averaged for all volumes of interest at each time point to obtain a time versus activity curve (TAC). Tumor and tissue TACs were normalized to injected dose, measured by a CRC-15 PET dose calibrator (Capintec, Inc., NJ, USA), and expressed as percentage injected dose per cubic centimeter of tissue (% ID/cc).

[4] = Image-based dosimetry using OLINDA software; format: in vivo; conditions: all tissues, Balb/C mice, relative to [^18F]-2-fluoro-2-deoxyglucose
Method: Image-based dosimetry was evaluated in Balb/C mice (n=4) using OLINDA software. […] The bottom plot is a zoom of the y-axis from the top plot.

[5] = system: mouse model of systemic inflammation (LPS); assay: [^18F]4-FDF PET/CT in LPS mouse model of systemic inflammation; format: in vivo
Method: In order to further investigate whether a fructolytic switch occurs in inflammatory neural and cardiac tissues, a mouse model of systemic inflammation was examined. [^18F]4-FDF PET/CT was performed on mice receiving vehicle (FIG. 5A) or bacterial cell wall LPS (FIG. 5B) 24 hr after injection. Sagittal, coronal, MIP, and axial sections of the brain, heart and muscle are shown. Time-activity curves (TAC) for brain (FIG. 5C), heart (FIG. 5D), and muscle (FIG. 5E) are shown for mice receiving vehicle (−LPS) or LPS (+LPS). Solid lines are the means and dotted lines are standard deviation. […] The plots show individual data points (circles), mean (long line) and s.d. (vertical line). * p<0.05 by ANOVA followed by Tukey's test.
Mice receiving saline vehicle (FIG. 5A) or intraperitoneal bacterial cell wall lipopolysaccharide (LPS), as previously described (FIG. 5B; Shrum, B. et al., 2014), were imaged by [^18F]4-FDF PET/CT 24 hr after injection. […] The low uptake of [^18F]4-FDF in healthy brain and heart contributed to an increased signal-to-noise ratio for the mapping of cardio- and neuroinflammation in tissues that are otherwise highly glycolytic and have high [^18F]FDG uptake in the absence of disease (FIG. 4C).
Eight-week-old male Balb/C mice received 5 mg/kg LPS through intraperitoneal injection 24-hr prior to planned PET/CT imaging. Mice were supported by being warmed, and by being given fluids subcutaneously 12 hr after LPS injection. The mice were monitored and scored for severity of response to LPS as described previously (Shrum, B. et al., 2014).
PET/CT Imaging. PET/CT imaging was carried out on a Bruker Si78PET/CT scanner with a 4-position hotel having adjustable isoflurane and respiratory monitoring for each position (Bruker USA). Tail veins were catheterized, and an anatomical CT was acquired over the whole of the mouse bodies using the “rat” settings. […] Tumor and tissue TACs were normalized to injected dose, measured by a CRC-15 PET dose calibrator (Capintec, Inc., NJ, USA), and expressed as percentage injected dose per cubic centimeter of tissue (% ID/cc).

[6] = Time-course PET/CT biodistribution and TACs in fed or fasted mice; conditions: Balb/C mice freely fed or overnight fasted, ~7.4 MBq i.v., 60 min PET/CT
Method: Animals received ˜7.4 MBq i.v. immediately upon the initiation of image acquisition, which continued for 60 min. The dynamic scan was binned according to the times indicated.
Solid line=mean; Shaded region=standard deviation. Regions of interest were drawn over the tissues of interest, and the activity within that region of interest of known volume were plotted over the timecourse of the 60 min PET/CT acquisition.

[7] = HepG2 xenograft mice, intravenous injection, PET/CT
[8] = 5 mg/kg LPS i.p., imaged 24 hr after injection, vs vehicle
[9] = healthy brain and heart, PET/CT

O=C(CF)[C@@H](O)[C@H](O)[C@H](O)CO [[U^13C]-1-FDF, [U^13C]-1-fluoro-1-deoxyfructose]
metabolic fate / main ^13C-labelled cellular product ([1]; mass spectrometry): majority of the ^13C-labelled cellular product being [U^13C]-deoxyfluorolactate | metabolism through the polyol pathway ([1]; mass spectrometry): limited metabolism through the polyol pathway | metabolic trapping in the cell ([1]; mass spectrometry): neither [U^13C]-1- (FIG. 3E) nor [U^13C]-6-FDF are metabolically trapped

O=C(CO)[C@@H](O)[C@H](F)[C@H](O)CO [[U^13C]-4-FDF, [U^13C]-4-fluoro-4-deoxyfructose]
metabolic fate / main ^13C-labelled cellular product ([1]; mass spectrometry): metabolism halted at [U^13C]-4-fluorodeoxy-1-phosphate | metabolism through the polyol pathway ([1]; mass spectrometry): capable of proceeding through the polyol pathway | accumulation of fluorodeoxyfructose-1,6-bisphosphate ([1]; mass spectrometry): accumulation of [U^13C]-4-fluorodeoxyfructose-1,6-bisphophate | metabolic trapping in the cell ([1]; mass spectrometry): unique ability to be trapped within cells | time course of metabolite generation ([1]; over 60 min of incubation): steady-state accumulation of [U^13C]-4-fluorodeoxyfructose-1-phosphate and [U^13C]-4-fluorodeoxyfructose-1,6-bisphosphate, and increase in [U^13C]-4-fluorodeoxysorbitol | formation of glucose-6-phosphate [1]: did not form detectable amounts of glucose-6-phosphate

O=C(CO)[C@@H](O)[C@H](O)[C@H](O)CF [[U^13C]-6-FDF, [U^13C]-6-fluoro-6-deoxyfructose]
metabolic fate / main ^13C-labelled cellular product ([1]; mass spectrometry): substantial amount of [U^13C]-deoxyfluorolactate production | metabolism through the polyol pathway ([1]; mass spectrometry): capable of proceeding through the polyol pathway | metabolic trapping in the cell ([1]; mass spectrometry): neither [U^13C]-1- (FIG. 3E) nor [U^13C]-6-FDF are metabolically trapped | formation of glucose-6-phosphate [1]: did not form detectable amounts of glucose-6-phosphate

O=[13C]([13CH2]O)[13C@@H](O)[13C@H](O)[13C@H](O)[13CH2]O [[U^13C]-fructose]
metabolic fate / main ^13C-labelled cellular product ([1]; mass spectrometry): metabolized as expected through both fructolytic and polyol pathways

O=C(CF)[C@@H](O)[C@H](O)[C@H](O)CO [[^18F]1-FDF, 1-deoxy-1-fluoro-fructose]
retention in cells in vitro and in vivo [2]: poorly retained in cells in vitro and in vivo

OC[C@H]1OC(O)(CO)[C@@H](O)[C@@H]1[18F] (stereo partly shown) [[^18F]4-FDF, [^18F]-4-fluoro-4-deoxyfructose]
retention in naïve brain (concussed mouse brain; naïve Balb/C mice, average images 20-40 min): limited retention | brain retention following concussion (concussed mouse brain; single closed-head impact at bregma 48 h prior to imaging, images 20-40 min): enhanced radiotracer retention | bone uptake ([3]; HepG2 xenograft mice, PET/CT): < 2 % ID/g | excretion route [3, 7]: renal exceeding hepatobiliary excretion | tumor accumulation / pattern of radiotracer retention [3, 7]: accumulate in the tumor | accumulation in normal mouse tissues ([3]; PET/CT, compared with [^18F]FDG): lower than that observed with [^18F]FDG | organ dose deposition [4]: less than or equal to the dose deposition for [^18F]-2-fluoro-2-deoxyglucose | brain uptake following LPS treatment [5, 8]: significant increase | cardiac uptake following LPS treatment [5, 8]: significant increase | uptake in healthy brain and heart [5, 9]: low uptake

O=C(CO)[C@@H](O)[C@H](O)[C@H](O)C[18F] [[^18F]6-FDF, [^18F]-6-fluoro-6-deoxyfructose]
bone uptake ([3]; HepG2 xenograft mice, PET/CT): > 7 % ID/g | bone uptake over time ([3]; HepG2 xenograft mice, TAC): continued to increase overtime | tumor accumulation / pattern of radiotracer retention [3, 7]: similarly observed | bone uptake, fold higher than [^18F]4-FDF ([3]; HepG2 xenograft mice, normalized to [^18F]4-FDF): 3.69 fold

O=C(CO)[C@@H](O)[C@@H]([18F])[C@H](O)CO [[^18F]-4-fluoro-4-deoxytagatose]
bone uptake [6]: significant bone uptake that is retained overtime | route of clearance [6]: main route of clearance is the kidney

[^18F]-2-fluoro-2-deoxy-D-glucose [[^18F]FDG]
area under the time activity curve (AUC) in brain, fold greater than [^18F]4-FDF ([3]; brain, normalized to AUC of [^18F]4-FDF): 6.01 fold | uptake in brain and heart in the absence of disease [3, 9]: high | area under the time activity curve (AUC) in heart, fold greater than [^18F]4-FDF ([3]; heart, normalized to AUC of [^18F]4-FDF): 5.29 fold
